Measurements published in patent US20020031795A1, “Nitrocoumarins for detecting all micro-organisms” (priority 1998, published 2002).

Legend:
Assay type in all cases: cell-based
[1] = system: Candida albicans (ATCC 90028); assay: Fluorescence after 24 hours, serial dilutions in Trypticase Soy broth; details: for Fluorescence reading: 24 hours
Experimental: (§1) This experiment was performed to test 7-nitrocoumarin-3-carboxylic acid on sixteen (16) different types of microorganism, including one yeast species.
(§2) A mass of 10 mg of the indicator was dissolved in 4 ml of hot, distilled water and this solution was then added to 96 ml of Trypticase Soy broth. The resultant mixture was sterile-filtered.
[…] Each culture was then diluted 1,000-fold in Trypticase Soy broth and then serial 10-fold dilutions were made in more Trypticase Soy broth until the test aliquot contained no more microbial cells.
(§3) The resultant dilutions ranged from 10^−3 to 10^−13.
(§4) Fifty microliters of each dilution plus 50 μl of Trypticase Soy broth were added to wells of a microtiter plate with or without 7-nitrocoumarin-3-carboxylic acid.
(§5) The plates were read (T zero) and then incubated at 35° C. before being read again after 24 hours. Two different readings were made at each time point:
(§6) of the fluorescence (excitation at 365 nm and emission at 440 nm), using a Biolite F1 2001 fluorometer (Labtech International Limited), for wells containing 7-nitrocoumarin-3-carboxylic acid.

Morganella morganii = assay: Reduction of the indicator by wild Enterobacteriaceae strain (fluorescence); details: 0.17 mmol/l
Experimental: (§7) The E. coli was grown for 24 hours at 35° C. on Columbia agar supplemented with sheep blood. The bacteria were then resuspended in sterile, distilled water and their density was adjusted to 0.5 on the MacFarland scale (i.e. about 10^8 cells/ml). This suspension was then diluted 100-fold in sterile Mueller-Hinton broth (i.e. to a final density of about 10^6 cells/ml).
(§8) Fifty microliters of each nitrocoumarin solution plus 50 μl of bacterial suspension were then added to the wells of a microtiter plate. The plates were incubated at 35° C. and the optical density and fluorescence of each well was read every 30 min for a total of 4 hours. Optical density (690 nm) readings were made using an Anthos 2001 spectrophotometer (Labtech International Limited), and fluorescence (excitation at 365 nm and emission at 440 nm) readings were made on a Biolite F1 2001 fluorometer (Labtech International Limited).
(§9) This experiment was designed to investigate whether or not it would be possible to detect Enterobacteriaceae other than E. coli using 7-nitrocoumarin-3-carboxylic acid. The conditions for this experiment were similar to those described for the first experiment (section A).
(§10) Five wild strains belonging to the species Citrobacter diversus, Enterobacter agglomerans, Hafnia alvei, Morganella morganii and Shigella sonnei were tested

Citrobacter diversus = assay: as above; details: 0.17 mmol/l
Experimental: as §7, §8, §9, §10

Enterobacter agglomerans = assay: as above; details: 0.17 mmol/l
Experimental: as §7, §8, §9, §10

Hafnia alvei = assay: as above; details: 0.17 mmol/l
Experimental: as §7, §8, §9, §10

Shigella sonnei = assay: as above; details: 0.17 mmol/l
Experimental: as §7, §8, §9, §10

[2] = system: Shigella sonnei (NCTC 8586); assay: Fluorescence after 24 hours, serial dilutions in Trypticase Soy broth
Experimental: as §1, §2
(§11) All the microorganisms were grown for 24 hours in Trypticase Soy broth at 35° C. Each culture was then diluted 1,000-fold in Trypticase Soy broth and then serial 10-fold dilutions were made in more Trypticase Soy broth until the test aliquot contained no more microbial cells.
as §3, §4, §5, §6

[3] = system: Serratia marcescens (NCTC 10211); assay: as above
Experimental: as §1, §2, §11, §3, §4, §5, §6

[4] = system: Enterobacteriaceae, non-fermenting Gram-positive bacilli, Staphylococcus spp., Streptococcus spp., Listeria spp. and yeasts; assay: Reduction of nitrocoumarin derivatives by most microorganisms (results not presented)
[5] = system: sixteen different microorganisms; assay: Growth indicator test on sixteen different microorganisms (summary)
Experimental: as §1, §2, §11, §3, §4
The plates were read (T zero) and then incubated at 35° C. before being read again after 24 hours. Two different readings were made at each time point: […]
as §6
In order to check the correlation between growth and the fluorescence results, the contents of each well were seeded on Columbia agar supplemented with sheep blood.

[6] = system: five different species of Enterobacteriaceae; assay: Reduction by wild strains of five species of Enterobacteriaceae (summary); details: 0.17 mmol/l
Experimental: as §9, §10

O=C(O)c1cc2ccc([N+](=O)[O-])cc2oc1=O [7-nitrocoumarin-3-carboxylic acid]
Fluorescence reading ([1]; dilution 10^−3): 2847 | Fluorescence reading ([1]; dilution 10^−4): 2609 | Fluorescence reading ([1]; dilution 10^−5): 2335 | Fluorescence reading ([1]; dilution 10^−6): 2041 | Fluorescence reading ([1]; dilution 10^−7): 1693 | Fluorescence reading ([1]; dilution 10^−8): 1745 | Fluorescence reading ([1]; dilution 10^−9): 1693 | Fluorescence reading ([1]; dilution 10^−10): 1751 | Fluorescence reading ([1]; dilution 10^−11): 1666 | Fluorescence reading ([1]; dilution 10^−12): 1702 | Fluorescence reading ([1]; dilution 10^−13): 1666 | Fluorescent signal compared with bacteria (in words) ([1]; RPMI medium, results not presented): comparable to that generated by the bacteria | Fluorescent signal compared with bacteria (in words) ([1]; Trypticase Soy broth): only a faint fluorescent signal | Fluorescent signal (Morganella morganii; 0 min): 0 | Fluorescent signal (Morganella morganii; 30 min): −42 | Fluorescent signal (Morganella morganii; 60 min): −24 | Fluorescent signal (Morganella morganii; 90 min): −15 | Fluorescent signal (Morganella morganii; 120 min): 31 | Fluorescent signal (Morganella morganii; 150 min): 95 | Fluorescent signal (Morganella morganii; 180 min): 403 | Fluorescent signal (Morganella morganii; 210 min): 2170 | Fluorescent signal (Morganella morganii; 240 min): 8128 | Fluorescent signal (Citrobacter diversus; 0 min): 0 | Fluorescent signal (Citrobacter diversus; 30 min): 3 | Fluorescent signal (Citrobacter diversus; 60 min): 3 | Fluorescent signal (Citrobacter diversus; 90 min): 34 | Fluorescent signal (Citrobacter diversus; 120 min): 92 | Fluorescent signal (Citrobacter diversus; 150 min): 281 | Fluorescent signal (Citrobacter diversus; 180 min): 546 | Fluorescent signal (Citrobacter diversus; 210 min): 1209 | Fluorescent signal (Citrobacter diversus; 240 min): 5393 | Fluorescent signal (Enterobacter agglomerans; 0 min): 0 | Fluorescent signal (Enterobacter agglomerans; 30 min): −15 | Fluorescent signal (Enterobacter agglomerans; 60 min): −3 | Fluorescent signal (Enterobacter agglomerans; 90 min): 9 | Fluorescent signal (Enterobacter agglomerans; 120 min): 74 | Fluorescent signal (Enterobacter agglomerans; 150 min): 199 | Fluorescent signal (Enterobacter agglomerans; 180 min): 501 | Fluorescent signal (Enterobacter agglomerans; 210 min): 1246 | Fluorescent signal (Enterobacter agglomerans; 240 min): 4099 | Fluorescent signal (Hafnia alvei; 0 min): 0 | Fluorescent signal (Hafnia alvei; 30 min): −24 | Fluorescent signal (Hafnia alvei; 60 min): −30 | Fluorescent signal (Hafnia alvei; 90 min): 0 | Fluorescent signal (Hafnia alvei; 120 min): 40 | Fluorescent signal (Hafnia alvei; 150 min): 122 | Fluorescent signal (Hafnia alvei; 180 min): 260 | Fluorescent signal (Hafnia alvei; 210 min): 775 | Fluorescent signal (Hafnia alvei; 240 min): 2048 | Fluorescent signal (Shigella sonnei; 0 min): 0 | Fluorescent signal (Shigella sonnei; 30 min): −9 | Fluorescent signal (Shigella sonnei; 60 min): 15 | Fluorescent signal (Shigella sonnei; 90 min): 52 | Fluorescent signal (Shigella sonnei; 120 min): 162 | Fluorescent signal (Shigella sonnei; 150 min): 434 | Fluorescent signal (Shigella sonnei; 180 min): 1108 | Fluorescent signal (Shigella sonnei; 210 min): 3095 | Fluorescent signal (Shigella sonnei; 240 min): 8567 | Fluorescence reading ([2]; dilution 10^−3): 51755 | Fluorescence reading ([2]; dilution 10^−4): 50254 | Fluorescence reading ([2]; dilution 10^−5): 50166 | Fluorescence reading ([2]; dilution 10^−6): 50278 | Fluorescence reading ([2]; dilution 10^−7): 49882 | Fluorescence reading ([2]; dilution 10^−8): 47370 | Fluorescence reading ([2]; dilution 10^−9): 1816 | Fluorescence reading ([2]; dilution 10^−10): 1990 | Fluorescence reading ([2]; dilution 10^−11): 1960 | Fluorescence reading ([2]; dilution 10^−12): 1956 | Fluorescence reading ([2]; dilution 10^−13): 1911 | Fluorescence reading ([3]; dilution 10^−3): 47178 | Fluorescence reading ([3]; dilution 10^−4): 49470 | Fluorescence reading ([3]; dilution 10^−5): 45804 | Fluorescence reading ([3]; dilution 10^−6): 45454 | Fluorescence reading ([3]; dilution 10^−7): 45637 | Fluorescence reading ([3]; dilution 10^−8): 43088 | Fluorescence reading ([3]; dilution 10^−9): 48320 | Fluorescence reading ([3]; dilution 10^−10): 1678 | Fluorescence reading ([3]; dilution 10^−11): 1641 | Fluorescence reading ([3]; dilution 10^−12): 1636 | Fluorescence reading ([3]; dilution 10^−13): 1621 | Reduction to give a fluorescent signal (in words) [4]: All were capable of reducing | Correlation of fluorescence readings with microbial growth (in words) ([5]; 24 hours, Trypticase Soy broth): correlate closely with microbial growth patterns for all the species tested | Sensitivity of the assay (in words) ([5]; limiting dilution): capable of detecting a single viable cell | Reduction by wild strains of five Enterobacteriaceae species (in words) [6]: All the strains tested were found to be able to reduce this compound
